Data as given in US9101577B2, “Analgesic pharmaceutical composition for oral administration” (Warszawski Uniwersytet Medyczny, priority 2011, dated 2015).

Legend:
Male Wistar rats [1] = assay: Prolonged activity on repeated daily p.o. administration (7 or 10 days), paw withdrawal test (Randall and Selitto); assay type: in vivo, rat; conditions: for pain threshold on separate administration, 7 days (morphine study): morphine 15 mg/kg
Procedure: (§1) Male Wistar rats (250-300 g) were housed in a room maintained at a temperature of 20±2° C. under 12 h-12 h light-dark cycles. The animals had free access to food and water. Experimental groups consisted of six rats.
(§2) Drugs • Morphine at a dose of 15 mg/kg, codeine at a dose of 175 mg/kg, tramadol at a dose of 125 mg/kg and oxycodone at a dose of 5 mg/kg were dissolved in distilled water; • Dihydrocodeine at a dose of 50 mg/kg was suspended in 1% solution of methylcellulose; • Magnesium lactate (in micronized form)—at a dose of 15 mg magnesium ions/kg (150 mg of magnesium lactate/kg) was suspended in 0.5% solution of methylcellulose; • Magnesium lactate in normal (non-micronized) form—at doses of 15 or 30 mg magnesium ions/kg (150 or 300 mg of magnesium lactate/kg, respectively) was suspended in 0.5% solution of methylcellulose; • Magnesium citrate (in micronized and normal form)—at a dose of 15 mg magnesium ions/kg (112 mg of magnesium citrate/kg) was dissolved in distilled water; • Magnesium hydroaspartate (in micronized and normal form)—at a dose of 15 mg magnesium ions/kg (216 mg of magnesium hydroaspartate/kg) was suspended in 0.5% solution of methylcellulose; • Magnesium chloride (in micronized and normal form)—at a dose of 15 mg magnesium ions/kg (59.5 mg of magnesium chloride/kg) was dissolved in distilled water; • Control animals received a 0.5% solution of methylcellulose, a 1% solution of methylcellulose and distilled water, respectively, according to the same time schedule.
Prolonged activity of the investigated drugs was measured the following day after initial administration, but before the next administration as well as after cessation of administration. Drugs were administered for seven consecutive days (administration of morphine, codeine, dihydrocodeine, oxycodone) or for ten days (administration of tramadol).
(§3) All drugs were administered per os (p.o.); literally—orally. However, in practice, drugs were administered intragastric via a gastric tube.
(§4) Changes in pain thresholds were determined using a mechanical stimuli—the modification of the classic paw withdrawal test described by Randall and Selitto [1957]. In order to produce mechanical stimulation, progressively increasing pressure was applied to the dorsal surface of the rat's paw using an analgesymeter. The instrument used increased the force on the paw at a rate of 32 grams per second. The nociceptive threshold was defined as force in grams, at which the rat attempted to withdraw its right hindpaw and values of pressure were recorded at this very moment. At least two observers controlled the response.
(§5) Nociceptive thresholds (average of two trials) measured for each animal before single administration of investigated drugs (measurement of acute activity) or in day 0 before the first administration (measurement of prolonged activity) constituted the baseline pain threshold—A. Next, measurements of the withdrawal threshold to mechanical stimuli were performed at 5, 15, 30, 60, 90, 120, 180, 240, 300 min after drug administration (measurements of acute activity) or every day before drug administration (measurements of prolonged activity)—B.
(§6) In all experimental sessions (i.e. every day, each drug investigated) values of thresholds obtained (B) were compared to baseline (A).
(§7) Changes in pain threshold were calculated as a percent of baseline value according to the following formula:
(§8) [formula] • C—% of analgesia; A—pressure (in g), baseline pain threshold; B—pressure (in g) in consecutive measurements.
(§9) Percents of analgesia values calculated as above for individual animals were subsequently used to calculate average values in particular experimental groups and for statistical analysis.
The results are expressed as mean values±standard […] of the mean (±S.E.M.). The statistical significance of differences between groups was evaluated by Student's t-test. p≦0.05 was accepted as statistically significant.

Male Wistar rats [2] = assay: Acute activity after single p.o. administration, paw withdrawal test (Randall and Selitto), % of analgesia; assay type: in vivo, rat; conditions: for analgesic activity / pain threshold when administered alone (morphine study): morphine 15 mg/kg
Procedure: as §1, §2
Magnesium salts and investigated opioids were administered concomitantly.
The micronized form of magnesium salts used in experiments contains particles of magnesium compounds of size D90<50 μm.
The normal magnesium salts form used in experiments contains particles of sizes commonly available in the market.
Acute activity of investigated drugs was measured in short time periods (from 5 to 300 min) after single administration.
as §3, §4, §5, §6, §7, §8, §9
The results are expressed as mean values±standard deviation of the mean (±S.E.M.).

[3] = 15 mg magnesium ions/kg p.o. with oxycodone 5 mg/kg p.o., 7 consecutive days
[4] = single administration, 15 mg magnesium ions/kg p.o. with tramadol 125 mg/kg p.o.
[5] = 15 mg magnesium ions/kg p.o. with codeine 175 mg/kg p.o., 7 days
[6] = 15 mg magnesium ions/kg p.o. with dihydrocodeine 50 mg/kg p.o., 7 days
[7] = 15 mg magnesium ions/kg p.o. with morphine 15 mg/kg p.o., 7 days
[8] = 15 mg magnesium ions/kg p.o. with tramadol 125 mg/kg p.o., 10 consecutive days
[9] = separate administration p.o., magnesium lactate micronized 15 or normal 30 mg magnesium ions/kg
[10] = single administration, 15 mg magnesium ions/kg p.o. with dihydrocodeine 50 mg/kg p.o.
[11] = single administration, 15 mg magnesium ions/kg p.o. with morphine 15 mg/kg p.o.
[12] = single administration, 15 mg magnesium ions/kg p.o. with oxycodone 5 mg/kg p.o.
[13] = single separate administration p.o., magnesium salts 15 mg magnesium ions/kg

CC(O)C(=O)[O-].CC(O)C(=O)[O-].[Mg+2] (stereo not drawn) [magnesium lactate, Magnesium lactate]
pain threshold one day after removal of the tested substances (oxycodone study) (Male Wistar rats [1]; 15 mg magnesium ions/kg p.o. with oxycodone 5 mg/kg p.o.): rapid return of the pain threshold to control values
course of enhancement of oxycodone analgesia (Male Wistar rats [1]; [3]): reached its maximum on days 6 and 7
day on which enhancement of oxycodone analgesia began (Male Wistar rats [1]; [3]): third
effect on long-term analgesic activity of oxycodone (Male Wistar rats [1]; [3]): enhanced the long-term analgesic activity of the examined opioid
enhancement of tramadol analgesia lasted until (Male Wistar rats [2]; [4]): 45 min
time at which enhancement of tramadol analgesia appeared (Male Wistar rats [2]; [4]): 5 min
time of maximum activity on tramadol analgesia (Male Wistar rats [2]; [4]): 15 min

CC(O)C(=O)[O-].CC(O)C(=O)[O-].[Mg+2] (stereo not drawn) [micronized magnesium lactate, Magnesium lactate]
course of enhancement of codeine analgesia (Male Wistar rats [1]; [5]): reached a maximum on days 6 and 7
day on which enhancement of codeine analgesia began (Male Wistar rats [1]; [5]): fourth
effect on analgesic activity of chronically administered codeine (Male Wistar rats [1]; [5]): also enhanced analgesic activity of chronically administered codeine
activity after cessation of drug administration (codeine study) (Male Wistar rats [1]; 15 mg magnesium ions/kg p.o. with codeine 175 mg/kg p.o., days 8-10): rapidly decreased
course of enhancement of dihydrocodeine analgesia (Male Wistar rats [1]; [6]): reached a maximum on days 6 and 7
day on which enhancement of dihydrocodeine analgesia began (Male Wistar rats [1]; [6]): fourth
effect on analgesic activity of chronically administered dihydrocodeine (Male Wistar rats [1]; [6]): gradually enhanced the analgesic activity of chronically administered dihydrocodeine
pain threshold after cessation of drug administration (dihydrocodeine study) (Male Wistar rats [1]; 15 mg magnesium ions/kg p.o. with dihydrocodeine 50 mg/kg p.o., days 8-10): the pain threshold rapidly reduced to control values
course of enhancement of morphine analgesia (Male Wistar rats [1]; [7]): grew gradually to 7 day
day on which enhancement of morphine analgesia began (Male Wistar rats [1]; [7]): 3 days
effect on analgesic activity of morphine, 7-day administration (Male Wistar rats [1]; [7]): also enhanced the analgesic activity of morphine
pain threshold after cessation of drug administration (morphine study) (Male Wistar rats [1]; 15 mg magnesium ions/kg p.o. with morphine 15 mg/kg p.o., days 8-10): gradual return to baseline values
course of enhancement of tramadol analgesia (Male Wistar rats [1]; [8]): gradually increased (to day 7), and then was maintained to day 10
day on which enhancement of tramadol analgesia began (Male Wistar rats [1]; [8]): third
effect on long-term analgesic activity of tramadol (Male Wistar rats [1]; [8]): enhanced the long-term analgesic activity of the examined opioid
pain threshold after removal of the tested substances (tramadol study) (Male Wistar rats [1]; 15 mg magnesium ions/kg p.o. with tramadol 125 mg/kg p.o., days 11-12): the pain threshold returned to control values by day 11
analgesic activity on separate administration, 7 days (codeine study) (Male Wistar rats [1]; separate administration p.o., codeine 175 mg/kg, magnesium lactate micronized 15 or normal 30 mg magnesium ions/kg): did not exhibit analgesic activity
pain threshold on separate administration, 7 days (dihydrocodeine study) (Male Wistar rats [1]; separate administration p.o., dihydrocodeine 50 mg/kg, magnesium lactate micronized 15 or normal 30 mg magnesium ions/kg): did not alter the pain threshold
pain threshold on separate administration, 7 days (morphine study) (Male Wistar rats [1]; [9]): did not alter the pain threshold
analgesic activity on separate administration, 7 days (oxycodone study) (Male Wistar rats [1]; separate administration p.o., oxycodone 5 mg/kg, magnesium lactate micronized 15 or normal 30 mg magnesium ions/kg): did not exhibit analgesic activity
pain threshold on separate administration, 10 days (tramadol study) (Male Wistar rats [1]; separate administration p.o., tramadol 125 mg/kg, magnesium lactate micronized 15 or normal 30 mg magnesium ions/kg): did not alter the pain threshold
effect on analgesic activity of codeine (Male Wistar rats [2]; single administration, 15 mg magnesium ions/kg p.o. with codeine 175 mg/kg p.o.): significantly enhanced the analgesic activity of codeine
effect on dihydrocodeine analgesia (Male Wistar rats [2]; [10]): significantly enhanced dihydrocodeine analgesia
time course of activity on dihydrocodeine analgesia (Male Wistar rats [2]; [10]): gradually increased and reached a maximum between min 45 and 90 of the measurements and then became weaker by min 210
effect on morphine analgesia (Male Wistar rats [2]; [11]): significantly enhanced morphine analgesia
enhancement of morphine analgesia lasted up to (Male Wistar rats [2]; [11]): 240 min
time at which enhancement of morphine analgesia appeared (Male Wistar rats [2]; [11]): 30 min
effect on oxycodone analgesia (Male Wistar rats [2]; [12]): significantly enhanced oxycodone analgesia
time at which activity on oxycodone analgesia appeared (Male Wistar rats [2]; [12]): 5 min
time course of activity on oxycodone analgesia (Male Wistar rats [2]; [12]): maintained at a constant level up to min 30 of the study, then became weaker in min 45 and disappeared in min 60
effect on antinociceptive activity of tramadol (Male Wistar rats [2]; [4]): increased antynociceptive activity of tramadol
analgesic activity on separate administration (codeine study) (Male Wistar rats [2]; single separate administration p.o., codeine 175 mg/kg, magnesium salts 15 mg magnesium ions/kg): did not exhibit analgesic activity
analgesic activity / pain perception threshold on separate administration (dihydrocodeine study) (Male Wistar rats [2]; single separate administration p.o., dihydrocodeine 50 mg/kg, magnesium salts 15 mg magnesium ions/kg): did not exhibit analgesic activity
analgesic activity / pain threshold when administered alone (morphine study) (Male Wistar rats [2]; [13]): Neither morphine nor magnesium lactate and chloride in micronized or normal form administered alone showed analgesic activity
analgesic activity on separate administration (oxycodone study) (Male Wistar rats [2]; single separate administration p.o., oxycodone 5 mg/kg, magnesium salts 15 mg magnesium ions/kg): showed no analgesic activity
analgesic activity on separate administration (tramadol study) (Male Wistar rats [2]; single separate administration p.o., tramadol 125 mg/kg, magnesium salts 15 mg magnesium ions/kg): did not exhibit analgesic activity

CN1CC[C@]23c4c5ccc(O)c4O[C@H]2[C@@H](O)C=C[C@H]3[C@H]1C5 [morphine, reference compound]
pain threshold on separate administration, 7 days (morphine study) (Male Wistar rats [1]; [9]): slightly increased the threshold for mechanical nociceptive stimuli
analgesic activity / pain threshold when administered alone (morphine study) (Male Wistar rats [2]; [13]): Neither morphine nor magnesium lactate and chloride in micronized or normal form administered alone showed analgesic activity
